Measured values: patent US12441768B2, “Compositions and methods for treating endometriosis” (EndoMet Biosciences, Inc., priority 2018, dated 2025)
Where a SMILES comes first, the peptide text is derived from it.

Assays:
[1] = target: Wnt-responsive promoter (TCF/LEF); experiment: Wnt-dependent luciferase reporter assay; format: cell-based, murine
Summary of the method: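 EC50 (uM) derived from inhibition of luminescence in Wnt3a-stimulated murine 3T3 cells expressing luciferase under a TCF/LEF promoter, with peptides added across a concentration range and vehicle as control.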

[2] = target: T1, β-catenin (Homo sapiens, UniProt P35222); experiment: KD50 measurement using competitive fluorescence polarization (FP) with labelled TCF4; format: binding; details: fluorescence polarization, β-catenin; for Kd: read-out: β-Cat FP KD
T1 sequence (P35222 1-781): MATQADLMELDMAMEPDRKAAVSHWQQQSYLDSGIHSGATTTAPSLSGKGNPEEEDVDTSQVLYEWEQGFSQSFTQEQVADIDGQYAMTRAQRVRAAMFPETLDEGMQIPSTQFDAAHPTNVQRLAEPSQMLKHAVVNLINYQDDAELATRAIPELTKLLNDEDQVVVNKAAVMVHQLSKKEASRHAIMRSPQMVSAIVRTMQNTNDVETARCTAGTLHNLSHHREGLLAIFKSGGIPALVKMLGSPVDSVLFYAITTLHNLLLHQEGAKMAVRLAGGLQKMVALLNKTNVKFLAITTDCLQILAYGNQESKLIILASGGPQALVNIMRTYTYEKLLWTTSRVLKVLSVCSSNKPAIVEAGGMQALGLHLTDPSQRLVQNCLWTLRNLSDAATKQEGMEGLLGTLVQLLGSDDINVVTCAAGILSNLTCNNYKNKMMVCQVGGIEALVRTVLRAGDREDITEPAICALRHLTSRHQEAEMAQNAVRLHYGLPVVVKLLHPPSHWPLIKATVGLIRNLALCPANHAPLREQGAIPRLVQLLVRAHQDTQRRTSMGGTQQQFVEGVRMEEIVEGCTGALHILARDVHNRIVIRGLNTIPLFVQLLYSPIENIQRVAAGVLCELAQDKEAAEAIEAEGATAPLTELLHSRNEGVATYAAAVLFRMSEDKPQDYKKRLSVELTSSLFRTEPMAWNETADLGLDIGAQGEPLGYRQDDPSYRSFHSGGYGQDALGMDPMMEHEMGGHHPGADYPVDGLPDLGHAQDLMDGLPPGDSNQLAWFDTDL
Summary of the method: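 Competitive FP in which unlabelled inhibitor (10 nM to 30 uM dilution series) displaces 5 nM labelled TCF4 from 100 nM β-catenin, room temperature. Read-out ex 470 nm, em 520 nm; experiment repeated three times.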

[3] = % Viability non-Wnt responsive cells

SMILES	EC50 [1] [µM]	β-Cat FP Hill slope [2]	Kd [2] [µM]	viability [3] [%]
CC[C@H](C)[C@H](NC(=O)[C@H](CC(C)C)NC(=O)[C@H](Cc1ccccc1)NC(=O)[C@H](Cc1c[nH]c2ccccc12)NC(=O)[C@@H](N)CCSC)C(=O)N[C@@H](CO)C(=O)N[C@@H](Cc1ccccc1)C(=O)N[C@@H](Cc1c[nH]c2ccccc12)C(=O)NCC(N)=O [compound 108] (H-MWFLISFWG-NH2)	7.5 to 15	0.7	0.4 to 1	102
CC[C@H](C)[C@@H]1NC(=O)[C@H](CC(C)C)NC(=O)[C@H](Cc2ccccc2)NC(=O)[C@H](Cc2c[nH]c3ccccc23)NC(=O)[C@H](CCSC)NC(=O)CCCCCNC(=O)C[C@@H](C(=O)O)NC(=O)[C@H](Cc2c[nH]c3ccccc23)NC(=O)[C@H](C)NC(=O)[C@H](CS)NC1=O [compound 192] (HELM PEPTIDE1{[O=C(CCCCCN[*:1])[*:2]].M.W.F.L.I.C.A.W.D}$PEPTIDE1,PEPTIDE1,1:R1-10:R3$$$V2.0)	< 7.5	1.33	< 0.4	103
CC[C@H](C)[C@@H]1NC(=O)[C@H](CC(C)C)NC(=O)[C@H](Cc2ccccc2)NC(=O)[C@H](Cc2c[nH]c3ccccc23)NC(=O)[C@H](CCSC)NC(=O)[C@@H](N)CCCCNC(=O)C[C@@H](C(=O)O)NC(=O)[C@H](Cc2c[nH]c3ccccc23)NC(=O)[C@H](Cc2ccccc2)NC(=O)[C@H](CS)NC1=O [compound 170] (HELM PEPTIDE1{K.M.W.F.L.I.C.F.W.D}$PEPTIDE1,PEPTIDE1,1:R3-10:R3$$$V2.0)	15 to 22.5	0.7	1 to 10	107
CSCC[C@H](N)C(=O)N[C@@H](Cc1c[nH]c2ccccc12)C(=O)N[C@@H](Cc1ccccc1)C(=O)N[C@@H](CC(C)C)C(=O)N[C@@H](C)C(=O)N[C@@H](CO)C(=O)N[C@@H](Cc1ccccc1)C(=O)N[C@@H](Cc1c[nH]c2ccccc12)C(=O)NCC(=O)O [compound 158] (H-MWFLASFWG-OH)	7.5 to 15		> 30	95.6
CC[C@H](C)[C@H](NC(=O)[C@H](CC(C)C)NC(=O)[C@H](Cc1ccccc1)NC(=O)[C@H](Cc1c[nH]c2ccccc12)NC(=O)[C@H](C)N)C(=O)N[C@@H](CO)C(=O)N[C@@H](Cc1ccccc1)C(=O)N[C@@H](Cc1c[nH]c2ccccc12)C(=O)NCC(=O)O [compound 209] (H-AWFLISFWG-OH)	< 7.5	0.93	0.4 to 1	91
CC[C@H](C)[C@H](NC(=O)[C@H](CC(C)C)NC(=O)[C@@H](NC(=O)[C@H](Cc1c[nH]c2ccccc12)NC(=O)[C@@H](N)CCSC)[C@@H](C)CC)C(=O)N[C@@H](CO)C(=O)N[C@@H](Cc1ccccc1)C(=O)N[C@@H](Cc1c[nH]c2ccccc12)C(=O)NCC(=O)O [compound 155] (H-MWILISFWG-OH)	> 30		> 30	97
CC[C@H](C)[C@@H]1NC(=O)[C@H](CC(C)C)NC(=O)[C@H](C2CCCCC2)NC(=O)[C@H](Cc2c[nH]c3ccccc23)NC(=O)[C@@H](N)CCCCNC(=O)C[C@@H](C(=O)O)NC(=O)[C@H](Cc2c[nH]c3ccccc23)NC(=O)[C@H](C)NC(=O)[C@H](CO)NC1=O [compound 204] (HELM PEPTIDE1{K.W.[O=C([C@@H](N[*:1])C1CCCCC1)[*:2]].L.I.S.A.W.D}$PEPTIDE1,PEPTIDE1,1:R3-9:R3$$$V2.0)	< 7.5	0.74	0.4 to 1	108
CCOC[C@H](NC(=O)[C@H](CO)NC(=O)[C@@H](NC(=O)[C@H](CC(C)C)NC(=O)[C@H](Cc1ccccc1)NC(=O)[C@@H](N)Cc1c[nH]c2ccccc12)[C@@H](C)CC)C(=O)N[C@@H](Cc1c[nH]c2ccccc12)C(=O)O [compound 104] (H-WFLISS(Et)W-OH)	7.5 to 15	3	1 to 10	104
CC[C@H](C)[C@H](NC(=O)[C@H](CC(C)C)NC(=O)[C@H](Cc1ccccc1)NC(=O)[C@H](Cc1c[nH]c2ccccc12)NC(=O)[C@@H](N)CCSC)C(=O)N[C@@H](C)C(=O)N[C@@H](Cc1ccccc1)C(=O)N[C@@H](Cc1c[nH]c2ccccc12)C(=O)NCC(=O)O [compound 159] (H-MWFLIAFWG-OH)	< 7.5		> 30	107
CC[C@H](C)[C@H](NC(=O)[C@H](CC(C)C)NC(=O)[C@H](Cc1ccccc1)NC(=O)[C@H](Cc1c[nH]c2ccccc12)NC(=O)[C@H](CCSC)NC(=O)[C@H](CCCNC(=N)N)NC(=O)[C@H](CO)NC(=O)[C@@H](N)CCSC)C(=O)N[C@@H](CO)C(=O)N[C@@H](Cc1ccccc1)C(=O)N[C@@H](Cc1c[nH]c2ccccc12)C(=O)N[C@@H](CCC(=O)O)C(=O)NCC(=O)O [compound 57] (H-MSRMWFLISFWEG-OH)	< 7.5	0.7	1 to 10	104
CC[C@H](C)[C@@H]1NC(=O)[C@H](CC(C)C)NC(=O)[C@H](Cc2ccccc2)NC(=O)[C@H](Cc2c[nH]c3ccccc23)NC(=O)[C@H](CCSC)NC(=O)CCCNC(=O)C[C@@H](C(=O)O)NC(=O)[C@H](Cc2c[nH]c3ccccc23)NC(=O)[C@H](Cc2ccccc2)NC(=O)[C@H](CS)NC1=O [compound 147] (HELM PEPTIDE1{[O=C(CCCN[*:1])[*:2]].M.W.F.L.I.C.F.W.D}$PEPTIDE1,PEPTIDE1,1:R1-10:R3$$$V2.0)	> 30		> 30	105
CC[C@H](C)[C@H](NC(=O)[C@H](CC(C)C)NC(=O)[C@@H](NC(=O)[C@H](Cc1c[nH]c2ccccc12)NC(C)=O)[C@@H](C)CC)C(=O)N[C@@H](CO)C(=O)N[C@@H](Cc1ccccc1)C(=O)N[C@@H](Cc1c[nH]c2ccccc12)C(=O)NCC(=O)O [compound 195] (Ac-WILISFWG-OH)	< 7.5	3	< 0.4	105
CC[C@H](C)[C@H](NC(=O)[C@H](CC(C)C)NC(=O)[C@H](Cc1ccccc1)NC(=O)[C@H](Cc1c[nH]c2ccccc12)NC(=O)[C@@H](NC(=O)[C@H](CCCNC(=N)N)NC(=O)[C@H](CO)NC(=O)[C@@H](N)CCSC)[C@@H](C)O)C(=O)N[C@@H](CO)C(=O)N[C@@H](Cc1ccccc1)C(=O)N[C@@H](Cc1c[nH]c2ccccc12)C(N)=O [compound 76] (H-MSRTWFLISFW-NH2)	> 30		> 30	105
CC[C@H](C)[C@H](NC(=O)[C@H](CC(C)C)NC(=O)[C@@H](NC(=O)[C@H](Cc1c[nH]c2ccccc12)NC(=O)[C@@H](N)CCSC)[C@@H](C)CC)C(=O)N[C@@H](CS)C(=O)N[C@@H](Cc1ccccc1)C(=O)N[C@@H](Cc1c[nH]c2ccccc12)C(=O)NCC(=O)O [compound 116] (H-MWILICFWG-OH)	< 7.5	0.72	0.4 to 1	123
CC[C@H](C)[C@@H]1NC(=O)[C@H](CC(C)C)NC(=O)[C@H](Cc2ccccc2)NC(=O)[C@H](Cc2c[nH]c3ccccc23)NC(=O)[C@@H](NC(C)=O)CCCCNC(=O)CC[C@@H](C(=O)O)NC(=O)[C@H](Cc2c[nH]c3ccccc23)NC(=O)[C@H](Cc2ccccc2)NC(=O)[C@H](CO)NC1=O [compound 199] (HELM PEPTIDE1{[ac].K.W.F.L.I.S.F.W.E}$PEPTIDE1,PEPTIDE1,2:R3-10:R3$$$V2.0)	< 7.5	0.7	0.4 to 1	89.8
CC[C@H](C)[C@H](NC(=O)[C@H](CC(C)C)NC(=O)[C@@H](NC(=O)[C@H](Cc1c[nH]c2ccccc12)NC(=O)[C@@H](N)CCSC)[C@@H](C)CC)C(=O)N[C@@H](CO)C(=O)N[C@@H](Cc1ccc(O)cc1)C(=O)N[C@@H](Cc1c[nH]c2ccccc12)C(=O)NCC(=O)O [compound 152] (H-MWILISYWG-OH)	< 7.5		> 30	114
CC[C@H](C)[C@H](NC(=O)[C@H](CC(C)C)NC(=O)[C@H](Cc1ccccc1)NC(=O)[C@H](Cc1c[nH]c2ccccc12)NC(=O)[C@H](CCSC)NC(=O)[C@H](CCCNC(=N)N)NC(=O)[C@@H](NC(=O)[C@@H](N)CCSC)[C@@H](C)CC)C(=O)N[C@@H](CS)C(=O)N[C@@H](C)C(=O)N[C@@H](Cc1c[nH]c2ccccc12)C(=O)NCC(=O)O [compound 166] (H-MIRMWFLICAWG-OH)	> 30		> 30	100
